In ChEMBL document CHEMBL4507302, “Data for DCP probe TP-020” (2021):

Key:
[1] = tested on: Tyrosine-protein kinase ABL1 (Homo sapiens), P00519 [F317I]; details: Compound concentration 1000.0 nM
[2] = tested on: Tyrosine-protein kinase ABL1 (Homo sapiens), P00519 [Q252H]; details: Compound concentration 1000.0 nM
[3] = tested on: Tyrosine-protein kinase ABL1 (Homo sapiens), P00519 [Q252H]; details: Compound concentration 1000.0 nM; remark: listed apart in the source
[4] = molecular target: Tyrosine-protein kinase ABL1 (Homo sapiens) (UniProt P00519); details: Compound concentration 1000.0 nM
[5] = molecular target: Calcium/calmodulin-dependent protein kinase type 1G (Homo sapiens) (UniProt Q96NX5); details: Compound concentration 1000.0 nM
[6] = molecular target: Calcium/calmodulin-dependent protein kinase type II subunit delta (Homo sapiens) (UniProt Q13557); details: Compound concentration 1000.0 nM
Calcium/calmodulin-dependent protein kinase type II subunit delta (Homo sapiens), sequence (Q13557 whole entry): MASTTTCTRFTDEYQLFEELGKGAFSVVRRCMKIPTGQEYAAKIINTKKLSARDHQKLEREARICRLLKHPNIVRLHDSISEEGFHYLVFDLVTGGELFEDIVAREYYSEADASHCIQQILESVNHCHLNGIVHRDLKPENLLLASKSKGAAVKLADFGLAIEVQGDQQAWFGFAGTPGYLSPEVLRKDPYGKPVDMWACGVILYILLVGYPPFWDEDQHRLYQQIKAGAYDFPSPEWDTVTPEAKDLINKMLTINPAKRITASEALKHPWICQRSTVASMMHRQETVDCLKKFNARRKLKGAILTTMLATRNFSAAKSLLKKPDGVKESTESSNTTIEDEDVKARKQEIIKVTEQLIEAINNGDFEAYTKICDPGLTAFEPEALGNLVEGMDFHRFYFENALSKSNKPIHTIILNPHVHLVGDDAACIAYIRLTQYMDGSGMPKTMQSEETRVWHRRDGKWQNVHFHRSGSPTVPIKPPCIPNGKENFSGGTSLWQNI

[7] = molecular target: Cyclin-dependent kinase-like 2 (Homo sapiens) (UniProt Q92772); details: Compound concentration 1000.0 nM
[8] = molecular target: Casein kinase I isoform gamma-3 (Homo sapiens) (UniProt Q9Y6M4); details: Compound concentration 1000.0 nM
[9] = molecular target: Serine/threonine-protein kinase DCLK1 (Homo sapiens) (UniProt O15075); details: Compound concentration 1000.0 nM
[10] = molecular target: Eukaryotic translation initiation factor 2-alpha kinase 1 (Homo sapiens) (UniProt Q9BQI3); details: Compound concentration 1000.0 nM
[11] = molecular target: Ephrin type-A receptor 4 (Homo sapiens) (UniProt P54764); details: Compound concentration 1000.0 nM
[12] = tested on: Receptor-type tyrosine-protein kinase FLT3 (Homo sapiens), P36888 [D835Y]; details: Compound concentration 1000.0 nM
[13] = molecular target: Vascular endothelial growth factor receptor 3 (Homo sapiens) (UniProt P35916); details: Compound concentration 1000.0 nM
[14] = molecular target: Insulin-like growth factor 1 receptor (Homo sapiens) (UniProt P08069); details: Compound concentration 1000.0 nM
[15] = molecular target: Interleukin-1 receptor-associated kinase 1 (Homo sapiens) (UniProt P51617); details: Compound concentration 1000.0 nM
[16] = molecular target: Mast/stem cell growth factor receptor Kit (Homo sapiens) (UniProt P10721); details: Compound concentration 1000.0 nM
[17] = tested on: Mast/stem cell growth factor receptor Kit (Homo sapiens), P10721 [V559D]; details: Compound concentration 1000.0 nM
[18] = molecular target: Tyrosine-protein kinase Lck (Homo sapiens) (UniProt P06239); details: Compound concentration 1000.0 nM
[19] = molecular target: LIM domain kinase 1 (Homo sapiens) (UniProt P53667); details: Compound concentration 1000.0 nM
[20] = tested on: Leucine-rich repeat serine/threonine-protein kinase 2 (Homo sapiens), Q5S007 [G2019S]; details: Compound concentration 1000.0 nM
[21] = molecular target: Leukocyte tyrosine kinase receptor (Homo sapiens) (UniProt P29376); details: Compound concentration 1000.0 nM
[22] = molecular target: Serine/threonine-protein kinase 26 (Homo sapiens) (UniProt Q9P289); details: Compound concentration 1000.0 nM
Serine/threonine-protein kinase 26 (Homo sapiens), sequence (Q9P289 2-416 limits assumed): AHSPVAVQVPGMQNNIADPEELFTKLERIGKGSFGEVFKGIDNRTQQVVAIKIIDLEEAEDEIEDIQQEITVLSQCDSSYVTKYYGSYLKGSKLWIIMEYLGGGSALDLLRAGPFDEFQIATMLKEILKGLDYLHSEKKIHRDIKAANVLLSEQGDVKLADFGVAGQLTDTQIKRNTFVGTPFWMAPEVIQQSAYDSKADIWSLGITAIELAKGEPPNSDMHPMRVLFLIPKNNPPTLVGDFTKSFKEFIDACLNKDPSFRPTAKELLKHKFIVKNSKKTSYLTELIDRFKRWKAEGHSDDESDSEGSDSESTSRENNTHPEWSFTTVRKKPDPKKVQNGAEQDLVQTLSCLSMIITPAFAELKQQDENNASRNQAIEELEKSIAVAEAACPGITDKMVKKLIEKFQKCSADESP

[23] = molecular target: Myosin light chain kinase, smooth muscle (Homo sapiens) (UniProt Q15746); details: Compound concentration 1000.0 nM
[24] = molecular target: Serine/threonine-protein kinase 38 (Homo sapiens) (UniProt Q15208); details: Compound concentration 1000.0 nM
Serine/threonine-protein kinase 38 (Homo sapiens), sequence (Q15208 2-465 limits assumed): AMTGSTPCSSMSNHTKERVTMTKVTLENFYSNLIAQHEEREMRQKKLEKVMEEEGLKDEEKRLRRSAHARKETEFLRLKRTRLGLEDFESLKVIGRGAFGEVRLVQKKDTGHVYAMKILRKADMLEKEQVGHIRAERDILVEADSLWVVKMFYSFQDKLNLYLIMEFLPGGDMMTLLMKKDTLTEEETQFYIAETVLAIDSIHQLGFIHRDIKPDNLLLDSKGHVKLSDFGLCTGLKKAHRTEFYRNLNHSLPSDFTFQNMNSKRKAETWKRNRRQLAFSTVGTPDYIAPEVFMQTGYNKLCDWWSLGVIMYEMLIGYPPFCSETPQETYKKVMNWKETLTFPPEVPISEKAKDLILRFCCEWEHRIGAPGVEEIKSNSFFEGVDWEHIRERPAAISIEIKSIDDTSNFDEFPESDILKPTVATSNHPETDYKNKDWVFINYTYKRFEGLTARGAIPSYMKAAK

[25] = molecular target: Serine/threonine-protein kinase Nek6 (Homo sapiens) (UniProt Q9HC98); details: Compound concentration 1000.0 nM
[26] = molecular target: Mitogen-activated protein kinase kinase kinase 14 (Homo sapiens) (UniProt Q99558); details: Compound concentration 1000.0 nM
[27] = molecular target: Mitogen-activated protein kinase 11 (Homo sapiens) (UniProt Q15759); details: Compound concentration 1000.0 nM
[28] = molecular target: Phosphatidylinositol 4-kinase beta (Homo sapiens) (UniProt Q9UBF8); details: Compound concentration 1000.0 nM
Phosphatidylinositol 4-kinase beta (Homo sapiens), sequence (Q9UBF8 2-816 limits assumed): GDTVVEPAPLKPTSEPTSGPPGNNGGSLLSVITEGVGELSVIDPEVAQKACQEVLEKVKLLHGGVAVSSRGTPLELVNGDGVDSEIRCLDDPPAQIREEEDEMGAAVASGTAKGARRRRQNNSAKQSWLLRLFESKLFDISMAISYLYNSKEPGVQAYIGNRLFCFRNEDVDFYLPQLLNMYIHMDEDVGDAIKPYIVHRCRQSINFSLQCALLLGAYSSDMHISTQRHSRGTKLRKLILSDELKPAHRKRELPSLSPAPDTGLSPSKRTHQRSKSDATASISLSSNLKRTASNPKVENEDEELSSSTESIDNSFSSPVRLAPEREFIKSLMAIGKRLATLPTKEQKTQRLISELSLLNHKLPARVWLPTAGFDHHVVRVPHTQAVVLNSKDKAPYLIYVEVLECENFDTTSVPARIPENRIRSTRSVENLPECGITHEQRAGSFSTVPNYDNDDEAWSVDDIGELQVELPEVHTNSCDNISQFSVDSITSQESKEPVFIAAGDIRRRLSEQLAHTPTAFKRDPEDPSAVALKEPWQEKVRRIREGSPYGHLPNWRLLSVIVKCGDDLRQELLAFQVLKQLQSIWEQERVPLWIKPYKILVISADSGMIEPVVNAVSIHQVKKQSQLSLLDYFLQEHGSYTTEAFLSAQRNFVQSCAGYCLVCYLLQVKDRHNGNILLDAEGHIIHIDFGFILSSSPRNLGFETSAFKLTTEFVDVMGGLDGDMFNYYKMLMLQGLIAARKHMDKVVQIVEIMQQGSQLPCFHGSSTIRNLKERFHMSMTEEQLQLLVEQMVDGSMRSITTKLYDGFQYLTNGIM

[29] = molecular target: cAMP-dependent protein kinase catalytic subunit alpha (Homo sapiens) (UniProt P17612); details: Compound concentration 1000.0 nM
[30] = molecular target: Serine/threonine-protein kinase D1 (Homo sapiens) (UniProt Q15139); details: Compound concentration 1000.0 nM
[31] = molecular target: Serine/threonine-protein kinase SIK3 (Homo sapiens) (UniProt Q9Y2K2); details: Compound concentration 1000.0 nM
[32] = molecular target: Proto-oncogene tyrosine-protein kinase receptor Ret (Homo sapiens) (UniProt P07949); details: Compound concentration 1000.0 nM
Proto-oncogene tyrosine-protein kinase receptor Ret (Homo sapiens), sequence (P07949 whole entry): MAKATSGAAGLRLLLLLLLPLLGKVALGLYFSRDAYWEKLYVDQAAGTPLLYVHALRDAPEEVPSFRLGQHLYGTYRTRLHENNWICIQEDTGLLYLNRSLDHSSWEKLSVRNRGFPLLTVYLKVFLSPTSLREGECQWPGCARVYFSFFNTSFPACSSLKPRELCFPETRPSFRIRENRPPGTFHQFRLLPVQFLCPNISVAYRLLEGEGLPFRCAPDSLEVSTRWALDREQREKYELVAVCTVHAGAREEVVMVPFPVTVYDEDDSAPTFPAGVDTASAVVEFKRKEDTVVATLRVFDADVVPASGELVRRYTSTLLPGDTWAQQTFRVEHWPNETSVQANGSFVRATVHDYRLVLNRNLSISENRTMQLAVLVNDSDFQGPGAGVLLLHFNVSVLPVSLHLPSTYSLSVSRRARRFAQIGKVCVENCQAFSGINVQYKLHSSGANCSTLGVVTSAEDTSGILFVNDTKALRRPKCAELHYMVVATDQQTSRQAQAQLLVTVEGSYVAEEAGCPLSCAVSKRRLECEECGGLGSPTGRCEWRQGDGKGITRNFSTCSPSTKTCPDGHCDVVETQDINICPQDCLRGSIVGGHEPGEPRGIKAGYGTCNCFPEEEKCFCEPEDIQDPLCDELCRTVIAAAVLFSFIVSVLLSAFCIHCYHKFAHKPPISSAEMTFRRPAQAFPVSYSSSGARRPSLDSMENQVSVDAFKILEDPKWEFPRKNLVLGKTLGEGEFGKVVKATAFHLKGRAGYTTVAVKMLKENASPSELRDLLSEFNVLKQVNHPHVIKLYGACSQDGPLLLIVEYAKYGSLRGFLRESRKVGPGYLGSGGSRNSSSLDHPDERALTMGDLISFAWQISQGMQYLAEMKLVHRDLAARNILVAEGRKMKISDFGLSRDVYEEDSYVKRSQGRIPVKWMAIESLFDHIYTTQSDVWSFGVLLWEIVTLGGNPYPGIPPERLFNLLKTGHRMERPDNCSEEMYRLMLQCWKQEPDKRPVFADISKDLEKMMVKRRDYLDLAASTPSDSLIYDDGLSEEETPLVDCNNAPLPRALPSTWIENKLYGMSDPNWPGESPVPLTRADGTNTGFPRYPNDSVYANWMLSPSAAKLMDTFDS

[33] = molecular target: Serine/threonine-protein kinase RIO2 (Homo sapiens) (UniProt Q9BVS4); details: Compound concentration 1000.0 nM
[34] = molecular target: Rho-associated protein kinase 2 (Homo sapiens) (UniProt O75116); details: Compound concentration 1000.0 nM
[35] = molecular target: Ribosomal protein S6 kinase alpha-3 (Homo sapiens) (UniProt P51812); details: Compound concentration 1000.0 nM
[36] = molecular target: Serine/threonine-protein kinase Sgk1 (Homo sapiens) (UniProt O00141); details: Compound concentration 1000.0 nM
[37] = molecular target: Serine/threonine-protein kinase TAO1 (Homo sapiens) (UniProt Q7L7X3); details: Compound concentration 1000.0 nM
[38] = molecular target: Serine/threonine-protein kinase TAO2 (Homo sapiens) (UniProt Q9UL54); details: Compound concentration 1000.0 nM
Serine/threonine-protein kinase TAO2 (Homo sapiens), sequence (Q9UL54 whole entry): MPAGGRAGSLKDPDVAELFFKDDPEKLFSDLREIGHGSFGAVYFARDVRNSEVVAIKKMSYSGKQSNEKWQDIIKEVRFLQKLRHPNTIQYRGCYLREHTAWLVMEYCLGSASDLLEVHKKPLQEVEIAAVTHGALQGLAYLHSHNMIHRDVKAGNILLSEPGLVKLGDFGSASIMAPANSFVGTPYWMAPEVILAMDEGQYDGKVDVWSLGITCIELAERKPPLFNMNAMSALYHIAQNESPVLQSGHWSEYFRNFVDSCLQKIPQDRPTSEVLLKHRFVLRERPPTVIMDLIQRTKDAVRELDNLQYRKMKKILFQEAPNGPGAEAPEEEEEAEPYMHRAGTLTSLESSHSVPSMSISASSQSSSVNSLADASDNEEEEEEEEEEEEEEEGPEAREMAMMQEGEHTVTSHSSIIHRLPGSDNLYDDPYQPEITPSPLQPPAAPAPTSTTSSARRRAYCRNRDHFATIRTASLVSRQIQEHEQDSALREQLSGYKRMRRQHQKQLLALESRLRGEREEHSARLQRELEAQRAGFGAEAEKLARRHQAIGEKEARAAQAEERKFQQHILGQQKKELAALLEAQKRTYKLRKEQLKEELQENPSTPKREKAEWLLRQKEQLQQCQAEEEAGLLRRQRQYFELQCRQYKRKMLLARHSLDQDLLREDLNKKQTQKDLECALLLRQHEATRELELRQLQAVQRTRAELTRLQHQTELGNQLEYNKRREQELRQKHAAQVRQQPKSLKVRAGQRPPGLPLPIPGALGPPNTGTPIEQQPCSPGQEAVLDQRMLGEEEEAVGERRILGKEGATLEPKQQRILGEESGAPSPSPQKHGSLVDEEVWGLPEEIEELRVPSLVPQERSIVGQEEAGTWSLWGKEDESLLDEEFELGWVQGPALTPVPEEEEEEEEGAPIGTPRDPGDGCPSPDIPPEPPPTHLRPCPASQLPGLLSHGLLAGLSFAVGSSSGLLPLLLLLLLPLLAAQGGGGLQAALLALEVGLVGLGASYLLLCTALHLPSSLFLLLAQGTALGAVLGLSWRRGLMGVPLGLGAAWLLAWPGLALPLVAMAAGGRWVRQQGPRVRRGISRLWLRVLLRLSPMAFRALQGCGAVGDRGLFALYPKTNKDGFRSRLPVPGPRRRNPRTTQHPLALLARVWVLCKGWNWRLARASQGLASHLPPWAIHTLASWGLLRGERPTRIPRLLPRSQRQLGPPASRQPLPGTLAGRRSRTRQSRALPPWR

[39] = molecular target: Tyrosine-protein kinase receptor Tie-1 (Homo sapiens) (UniProt P35590); details: Compound concentration 1000.0 nM
[40] = molecular target: Serine/threonine-protein kinase TNNI3K (Homo sapiens) (UniProt Q59H18); details: Compound concentration 1000.0 nM
[41] = molecular target: Serine/threonine-protein kinase WNK1 (Homo sapiens) (UniProt Q9H4A3); details: Compound concentration 1000.0 nM
[42] = molecular target: 5-hydroxytryptamine receptor 5A (Homo sapiens) (UniProt P47898); details: Compound concentration 10.0 uM
[43] = molecular target: Histamine H1 receptor (Homo sapiens) (UniProt P35367); details: Compound concentration 10.0 uM
[44] = molecular target: Histamine H2 receptor (Homo sapiens) (UniProt P25021); details: Compound concentration 10.0 uM
[45] = molecular target: Alpha-1B adrenergic receptor (Homo sapiens) (UniProt P35368); details: Compound concentration 10.0 uM
Alpha-1B adrenergic receptor (Homo sapiens), sequence (P35368 whole entry): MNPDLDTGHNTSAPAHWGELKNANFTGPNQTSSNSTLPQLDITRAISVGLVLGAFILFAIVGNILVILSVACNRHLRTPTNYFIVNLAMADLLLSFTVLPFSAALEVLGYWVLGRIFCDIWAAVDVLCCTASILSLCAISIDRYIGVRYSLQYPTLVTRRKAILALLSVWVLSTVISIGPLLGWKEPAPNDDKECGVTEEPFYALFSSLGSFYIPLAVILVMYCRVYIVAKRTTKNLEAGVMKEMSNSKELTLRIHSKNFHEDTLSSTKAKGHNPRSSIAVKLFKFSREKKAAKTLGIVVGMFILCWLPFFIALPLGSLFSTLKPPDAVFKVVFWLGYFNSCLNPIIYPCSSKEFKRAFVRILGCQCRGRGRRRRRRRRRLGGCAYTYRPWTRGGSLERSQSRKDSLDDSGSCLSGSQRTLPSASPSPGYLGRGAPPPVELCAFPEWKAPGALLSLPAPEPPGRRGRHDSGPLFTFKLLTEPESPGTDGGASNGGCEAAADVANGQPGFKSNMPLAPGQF

## Nc1cnc(N2CCc3cc(S(=O)(=O)Nc4c(F)cc(Cl)cc4F)cc(N4CCCC4=O)c32)nc1
[1]
  residual activity: 100%
[2]
  residual activity: 100%
[3]
  residual activity: 98%
[4]
  residual activity: 97%
[5]
  residual activity: 100%
[6]
  residual activity: 100%
[7]
  residual activity: 85%
[8]
  residual activity: 78%
[9]
  residual activity: 100%
[10]
  residual activity: 94%
[11]
  residual activity: 100%
[12]
  residual activity: 100%
[13]
  residual activity: 86%
[14]
  residual activity: 90%
[15]
  residual activity: 100%
[16]
  residual activity: 100%
[17]
  residual activity: 100%
[18]
  residual activity: 100%
[19]
  residual activity: 100%
[20]
  residual activity: 81%
[21]
  residual activity: 100%
[22]
  residual activity: 83%
[23]
  residual activity: 91%
[24]
  residual activity: 99%
[25]
  residual activity: 100%
[26]
  residual activity: 75%
[27]
  residual activity: 100%
[28]
  residual activity: 93%
[29]
  residual activity: 100%
[30]
  residual activity: 83%
[31]
  residual activity: 83%
[32]
  residual activity: 89%
[33]
  residual activity: 89%
[34]
  residual activity: 100%
[35]
  residual activity: 100%
[36]
  residual activity: 100%
[37]
  residual activity: 80%
[38]
  residual activity: 78%
[39]
  residual activity: 100%
[40]
  residual activity: 49%
[41]
  residual activity: 100%
[42]
  inhibition: -4.87%
[43]
  inhibition: -2.69%
[44]
  inhibition: 8.19%
[45]
  inhibition: 4.68%

## Cn1nc(C(F)(F)F)cc1-c1cnc(N2CCc3cc(S(=O)(=O)Nc4c(F)cc(Cl)cc4F)cc(N4CCCC4=O)c32)nc1 [TP-020]
[1]
  residual activity: 71%
[2]
  residual activity: 85%
[3]
  residual activity: 99%
[4]
  residual activity: 95%
[5]
  residual activity: 100%
[6]
  residual activity: 99%
[7]
  residual activity: 100%
[8]
  residual activity: 81%
[9]
  residual activity: 93%
[10]
  residual activity: 100%
[11]
  residual activity: 97%
[12]
  residual activity: 100%
[13]
  residual activity: 96%
[14]
  residual activity: 94%
[15]
  residual activity: 72%
[16]
  residual activity: 94%
[17]
  residual activity: 99%
[18]
  residual activity: 100%
[19]
  residual activity: 100%
[20]
  residual activity: 93%
[21]
  residual activity: 94%
[22]
  residual activity: 73%
[23]
  residual activity: 100%
[24]
  residual activity: 97%
[25]
  residual activity: 100%
[26]
  residual activity: 79%
[27]
  residual activity: 100%
[28]
  residual activity: 77%
[29]
  residual activity: 100%
[30]
  residual activity: 80%
[31]
  residual activity: 94%
[32]
  residual activity: 87%
[33]
  residual activity: 89%
[34]
  residual activity: 85%
[35]
  residual activity: 99%
[36]
  residual activity: 100%
[37]
  residual activity: 99%
[38]
  residual activity: 100%
[39]
  residual activity: 100%
[40]
  residual activity: 65%
[41]
  residual activity: 98%
[42]
  inhibition: 7.89%
[43]
  inhibition: 10.2%
[44]
  inhibition: 12.1%
[45]
  inhibition: 4.33%
